Series [1] is described as follows: (§1) Cytotoxicity against human HL60 cells assessed as cell survival at 50 uM after 72 hrs by CCK8 assay. It counts as functional. The following applies: HL-60, 72 h, read-out: Survival.
Series [2] deals with HL-60. Description: Induction of apoptosis in human HL60 cells assessed as nuclear fragmentation at 50 uM by Hoechst 33342 staining method. It counts as functional, cell-based.
The test system of series [3] is HL-60. Nature of the series: Induction of apoptosis in human HL60 cells assessed as chromatin condensation at 50 uM by Hoechst 33342 staining method. It counts as functional, cell-based.
The test system of series [4] is HL-60. Nature of the series: Induction of apoptosis in human HL60 cells assessed as membrane blebbing at 50 uM by Hoechst 33342 staining method. It counts as functional, cell-based.
In series [5] the test system is HL-60. Description: Induction of cell morphological changes in human HL60 cells assessed as increase in cellular size at 50 uM by Giemsa staining method. It counts as functional, cell-based.
The test system of series [6] is HL-60. Description: Induction of cell morphological changes in human HL60 cells assessed as increase in cytoplasmic content at 50 uM by Giemsa staining method. It counts as functional, cell-based.
In series [7] the test system is HL-60. Nature of the series: Induction of cell morphological changes in human HL60 cells assessed as increase in nuclear complexity at 50 uM by Giemsa staining method. It counts as functional, cell-based.
The nature of series [8]: Retention time of the compound by UPLC analysis. It counts as physicochemical.
For series [9], the system named is HL-60. Described as §1. It counts as functional.

Calls of active or inactive are those of the source. The rule behind the calls is not given here.

For the compound `O=C(OC[C@H]1O[C@@H](Oc2c(-c3ccc(O)cc3)oc3cc(O)cc(O)c3c2=O)[C@H](OC(=O)c2cc(O)c(O)c(O)c2)[C@@H](O)[C@@H]1O)c1cc(O)c(O)c(O)c1`, the viability at 50 µM in [1] stood at 24.6%. For the same compound, the result in the series with HL-60 [2], in the series on HL-60 [3], in the series with HL-60 [4], in the series with HL-60 [5], in the series on HL-60 [6] and in the series on HL-60 [7] was Active. The compound also gave a Retention_time in series [8] of 23.37 min.

Turning to `C[C@@H]1O[C@@H](Oc2c(-c3ccc(O)c(O)c3)oc3cc(O)cc(O)c3c2=O)[C@H](O)[C@H](O)[C@H]1O` [QUERCITRIN], the viability at 50 µM in series [1] came to 46.8%. The Retention_time in [8] amounted to 23.37 min.

`Oc1cc(O)c2c(c1)O[C@H](c1ccc(O)c(O)c1)[C@H](O)C2` [(-)-EPICATECHIN] yielded a Retention_time in [8] of 17.1 min.

On to `CCOC(=O)c1cc(O)c(O)c(O)c1` [ETHYLGALLATE], for which the viability at 50 µM in [1] worked out at 55.7%. The compound also gave a Retention_time in series [8] of 20.55 min.

As to `O=c1c(O)c(-c2ccc(O)cc2)oc2cc(O)cc(O)c12`, the outcome with HL-60 [9] was Active.

In the case of `O=C(O[C@H]1[C@H](Oc2c(-c3ccc(O)cc3)oc3cc(O)cc(O)c3c2=O)O[C@H](CO)[C@@H](O)[C@@H]1O)c1cc(O)c(O)c(O)c1`, the viability at 50 µM in [1] was determined as 48.3%. Further, the Retention_time in series [8] was determined as 27.02 min.

As for `C[C@@H]1O[C@@H](Oc2c(-c3ccc(O)cc3)oc3cc(O)cc(O)c3c2=O)[C@H](O)[C@H](O)[C@H]1O` [AFZELIN], the viability at 50 µM in series [1] turned out to be 45.8%. In series [8], this compound showed a Retention_time of 25.42 min.

Consider `Oc1cc(O)c2c(c1)O[C@H](c1ccc(O)c(O)c1)[C@@H](O)[C@@H]2c1c(O)cc(O)c2c1O[C@H](c1ccc(O)c(O)c1)[C@@H](O)C2`, for which the viability at 50 µM in [1] was 58.9%. Also, in series [8], the Retention_time is listed as 14.6 min.

On to `Oc1cc(O)c2c(c1)O[C@H](c1ccc(O)c(O)c1)[C@@H](O)C2` [CIANIDANOL], for which the viability at 50 µM in [1] was determined as 47%. In addition, the Retention_time in series [8] came to 13.56 min.

With `O=C(O)c1cc(O)c(O)c(O)c1` [GALLIC ACID], the viability at 50 µM in series [1] came to 4.3%. The same compound gave a Retention_time in series [8] of 5.04 min.

On to `O=c1c(O)c(-c2ccc(O)c(O)c2)oc2cc(O)cc(O)c12` [QUERCETIN], for which the viability at 50 µM in [1] is 29.7%. This compound gave a Retention_time in series [8] of 28.97 min.

Turning to `O=c1c(O[C@@H]2O[C@H](CO)[C@@H](O)[C@H](O)[C@H]2O)c(-c2ccc(O)cc2)oc2cc(O)cc(O)c12`, the result with HL-60 [9] was Active.

Source of the values: ChEMBL document CHEMBL3352448, “Phytochemical analysis and antileukemic activity of polyphenolic constituents of Toona sinensis” (Bioorg Med Chem Lett, 2014).
